The values below come from US6242600A, “2-piperazinone-1-acetic acid derivatives and their use” (Takeda Chemical Industries, Ltd., priority 1997, dated 2001).

The assay deals with platelet aggregation induced by ADP (platelet rich plasma). In words: Inhibitory Effect on Platelet Aggregation in Guinea Pigs (induced by ADP). It counts as cell-based. As to conditions: Cavia porcellus; guinea pig platelet rich plasma, about 400,000 platelets/μl, 37° C., ADP final concentration 1 μM, test drug added 2 minutes before ADP; read-out: Inhibition of platelet aggregation by ADP, IC50. As to the method:
Blood was collected from abdominal aorta of male guinea pigs under anesthesia with pentobarbital (20 mg/kg, i.p.) using sodium citrate as an anticoagulant (final concentration: 0.315%). The sodium citrate-supplemented blood was centrifuged at 1000 g for […] to obtain platelet rich plasma (PRP), which was further centrifuged at 1000 g for 10 minutes respectively at room temperature to obtain platelet poor plasma (PPP). The number of platelet was counted at automatic platelet counter (Sysmex E2500, Toaiyo-denshi). PRP was diluted with PPP to adjust the number of platelets to be about 400,000/μl. Platelet aggregation was measured as follows, using an 8-channel aggregometer (NBS HEMA TRACER VI, Niko Bioscience Inc.): The PRP (250 μl) was incubated at 37° C. for 2 minutes, to n added 25 μl of a test drug solution. Two minutes later, 25 μl of an agent (ADP; finalconcentration: 1 μM) for causing agglutination. The effect of the test drug was shown by the inhibition rate of the maximum aggregation rate of the test group against that of the control group.
On to `COC(=O)C[C@H]1C(=O)N(CC(=O)OC)CCN1C(=O)CCC(=O)N1CCN(c2ccccn2)CC1` [compound 12], for which the half-maximal inhibitory concentration (IC50) turned out to be 38 nM. In the case of `COC(=O)C[C@H]1C(=O)N(CC(=O)O)CCN1C(=O)[C@@H](CC(=O)N1CCN(c2ccncc2)CC1)NS(=O)(=O)c1ccc(OC)cc1` [compound 31], the half-inhibitory concentration (IC50) stood at 60 nM. As for `COC(=O)C[C@H]1C(=O)N(CC(=O)OC)CCN1C(=O)CCC(=O)N1CCN(c2ncccn2)CC1` [compound 14], the figure is 75 nM; as for `COC(=O)C[C@H]1C(=O)N(CC(=O)O)CCN1C(=O)[C@H](Cc1ccc(OC)cc1)NC(=O)C1CCN(c2ccncc2)CC1` [compound 9], 70 nM; as for `COC(=O)C[C@H]1C(=O)N(CC(=O)OC(C)(C)C)CCN1C(=O)[C@H](CC(=O)N1CCN(c2ccncc2)CC1)NC(=O)OC(C)(C)C` [compound 20], 44 nM. The figure for `COC(=O)C[C@H]1C(=O)N(CC(=O)O)CCN1C(=O)[C@H](CC(=O)N1CCN(c2ccncc2)CC1)NS(=O)(=O)c1ccc(OC)cc1` [compound 33] is 240 nM; for `COC(=O)C[C@H]1C(=O)N(CC(=O)O)CCN1C(=O)[C@H](CC(=O)N1CCN(c2ccncc2)CC1)NCc1ccc(OC)cc1` [compound 36] it is 220 nM. The figure for `COC(=O)C[C@H]1C(=O)N(CC(=O)O)CCN1C(=O)[C@@H](CC(=O)N1CCN(c2ccncc2)CC1)NC(=O)OCOC(=O)C(C)(C)C` [compound 43] is 99 nM; for `CN[C@H](CC(=O)N1CCN(c2ccncc2)CC1)C(=O)N1CCN(CC(=O)O)C(=O)[C@@H]1CC(=O)OC` [compound 40] it is 58 nM. For the molecule `COC(=O)C[C@H]1C(=O)N(CC(=O)O)CCN1C(=O)[C@H](CC(=O)N1CCN(c2ccncc2)CC1)NC(=O)OC` [compound 24], the IC50 is 62 nM.
